Measurements taken from ChEMBL document CHEMBL1201862, “PubChem BioAssay data set” (2004).
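Values below derive from 48-hour exposures of cells grown in 96-well plates, with endpoints linearly interpolated between the two concentrations bracketing the appropriate inhibition level. Here, GI50 denotes the concentration required for 50% inhibition of growth.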 Calls of active or inactive are those of the source. No stated cut-off is given here; in the data, active = GI50 up to about 1.1 µM and inactive = higher.

What was measured:
Assay in all cases: NCI-60 cell line screen, 48 h
[1] = system: 786-0
[2] = system: A498
[3] = system: A549
[4] = system: ACHN
[5] = system: CAKI-1
[6] = system: CCRF-CEM
[7] = system: COLO 205
[8] = system: DLD-1
[9] = system: DMS-114
[10] = system: DMS-273
[11] = system: EKVX
[12] = system: HCC 2998
[13] = system: HCT-116
[14] = system: HCT-15
[15] = system: HL-60
[16] = system: HOP-62
[17] = system: HOP-92
[18] = system: HT-29
[19] = system: IGROV-1
[20] = system: K562
[21] = system: KM-20L2
[22] = system: KM12
[23] = system: LOX IMVI
[24] = system: LXFL 529
[25] = system: M14
[26] = system: M19-MEL
[27] = system: MOLT-4
[28] = system: Malme-3M
[29] = system: NCI-H226
[30] = system: NCI-H23
[31] = system: NCI-H460
[32] = system: OVCAR-3
[33] = system: OVCAR-4
[34] = system: OVCAR-5
[35] = system: OVCAR-8
[36] = system: RPMI-8226
[37] = system: RXF 393
[38] = system: SF-268
[39] = system: SF-295
[40] = system: SF-539
[41] = system: SK-MEL-28
[42] = system: SK-MEL-2
[43] = system: SK-MEL-5
[44] = system: SK-OV-3
[45] = system: SN12C
[46] = system: SNB-75
[47] = system: SNB-78
[48] = system: SR
[49] = system: SW-620
[50] = system: TK-10
[51] = system: U-251
[52] = system: UACC-257
[53] = system: UACC-62
[54] = system: UO-31
[55] = system: XF498
[56] = system: HOP-18
[57] = system: NCI-H522
[58] = system: SNB-19

Measured: GI50

C/C(COc1ccccc1)=N\NC(N)=S
inactive: [1] > 100 µM | [2] > 100 µM | [3] > 100 µM | [4] > 100 µM | [5] > 100 µM | [6] 61.7 µM | [7] > 100 µM | [8] > 100 µM | [9] 62.7 µM | [10] > 100 µM | [11] > 100 µM | [12] > 100 µM | [13] > 100 µM | [15] > 100 µM | [16] > 100 µM | [17] > 100 µM | [18] 61.9 µM | [19] > 100 µM | [20] > 100 µM | [21] > 100 µM | [22] 68.1 µM | [23] > 100 µM | [24] 44.5 µM | [25] > 100 µM | [26] > 100 µM | [27] > 100 µM | [28] > 100 µM | [29] > 100 µM | [30] > 100 µM | [31] > 10 µM | [32] > 100 µM | [33] > 100 µM | [34] > 100 µM | [35] > 100 µM | [36] > 100 µM | [37] > 100 µM | [38] > 100 µM | [39] > 100 µM | [40] 90.4 µM | [41] > 100 µM | [42] > 100 µM | [43] 91.4 µM | [44] > 100 µM | [45] > 100 µM | [46] > 100 µM | [47] > 100 µM | [48] > 100 µM | [49] > 100 µM | [50] > 100 µM | [51] > 100 µM | [52] > 100 µM | [53] > 100 µM | [54] > 100 µM | [55] 53.5 µM
> 100 µM: [14]

COc1cccc(-c2cc(O)c3ccccc3n2)c1
inactive: [1] 5.25 µM | [2] 11.4 µM | [3] 6.92 µM | [4] 6.92 µM | [6] 4.56 µM | [7] 4.93 µM | [8] 3.63 µM | [9] 4.69 µM | [10] 4.53 µM | [11] 52.2 µM | [12] 6.58 µM | [13] 5.53 µM | [15] 2.98 µM | [56] 15.2 µM | [16] 8.18 µM | [18] 3.82 µM | [19] 17.2 µM | [20] 4.72 µM | [21] 9.77 µM | [22] 4.03 µM | [23] 5.18 µM | [24] 4.86 µM | [25] 4.82 µM | [26] 8.15 µM | [27] 6.55 µM | [28] 3.89 µM | [29] 6.89 µM | [30] 7.52 µM | [31] 4.59 µM | [57] 3.06 µM | [32] 4.2 µM | [33] > 100 µM | [34] 7.43 µM | [35] 6.24 µM | [36] 5.45 µM | [37] 2.79 µM | [38] 10.3 µM | [39] 2.81 µM | [40] 3.57 µM | [41] > 100 µM | [42] 24.9 µM | [43] 4.48 µM | [44] 5.38 µM | [45] 6.46 µM | [58] 6.82 µM | [46] 4.98 µM | [48] 5.5 µM | [49] 3.28 µM | [50] > 100 µM | [51] 9.53 µM | [52] 2.32 µM | [53] 4.06 µM | [54] 6.18 µM | [55] 4.07 µM
4.7 µM: [14]
